The numbers were not newly measured in patent US20240082160A1, “AMLODIPINE DRY SUSPENSION AND PREPARATION METHOD THEREFOR” (GUANGZHOU APICHOPE PHARMACEUTICAL CO., LTD., priority 2021, published 2024), which cites them from elsewhere.

As to `CCOC(=O)C1=C(COCCN)NC(C)=C(C(=O)OC)C1c1ccccc1Cl` (stereo not shown) [amlodipine besylate], the solubility in water entry is “slightly soluble in water”.
